{"source": "patent US20250121000A1", "about": "“INHALABLE BICARBONATE COMPOSITIONS AND DELIVERY SYSTEMS THEREFOR” (Nebulize Performance Inc., priority 2023, published 2025)", "key": {"[1]": {"settings": "upwards of / over 20 grams, literature studies, cited from earlier work"}, "[2]": {"settings": "for gastrointestinal discomfort or side effects / self-reported breathing difficulties (chest tightness, shortness of breath, respiratory difficulty) and nausea: inhaled nebulized 3.5% sodium bicarbonate; for self-reported breathing difficulties (chest tightness, shortness of breath, respiratory difficulty) and nausea: all participants", "protocol": "A randomized, single-blinded, crossover design was used. Participants completed a repeated sprint exercise protocol to total exhaustion in an indoor facility after inhaling 20 mL of a 3.5% sodium bicarbonate solution (700 mg) dissolved in water or a placebo (pure water) prior to the sprint test. Participants inhaled the solutions through a commercially available nebulizer (Pari Vios Nebulizer System™) for 30 min while seated at rest over 5 bouts of 6 min (4 mL/bout) prior to completing the first sprint set and were required to breathe the same solution for 60 seconds in between each set (described below).\nThe order of placebo or bicarbonate was assigned with a numbering system of 1 and 2 respectively, where half of the participants were randomly assigned a 1-2 vs 2-1 order with each trial separated by one week. Following the last trial, participants were asked to guess the order of trials. […] Participants were also asked to describe any noticeably breathing difficulties including chest tightness, shortness of breath or any sign of respiratory difficulty, as well as nausea."}, "[3]": {"settings": "inhaled 3.5% sodium bicarbonate, sets 1-4, p<0.05"}, "[4]": {"settings": "participants that completed more than 4 sprint sets, non-significant trend"}}, "note": "Where two headings read alike, the source gives them in different places.", "data": [{"molecule": "O=C([O-])O.[Na+]", "note": "[sodium bicarbonate]", "values": [{"measurement": "faster sprint times after oral ingestion", "setting": "[1]; listed as bicarbonate", "result": "≤ 5", "unit": "%"}, {"measurement": "faster sprint times after oral ingestion", "setting": "[1]", "result": "< 5", "unit": "%"}, {"measurement": "average improvement in sprint time vs placebo, first half of each set (shuttle sprints 1-3)", "setting": "[2]; [3]", "result": 3.5, "unit": "%"}, {"measurement": "improvement in average sprint time vs placebo, sprints 4-6 of each set", "setting": "[2]; [3]", "result": 4.5, "unit": "%"}, {"measurement": "decrease in average sprint time vs placebo, overall (sprints 1-6 of each set)", "setting": "[2]; inhaled 20 mL of 3.5% sodium bicarbonate solution (700 mg) by nebulizer plus 60 s between sets, 4 sets of 6x40 m sprints, p<0.05", "result": 4.1, "unit": "%"}, {"measurement": "gastrointestinal discomfort or side effects", "setting": "[2]", "result": "no participants experienced any symptoms of gastrointestinal discomfort or side effects"}, {"measurement": "self-reported breathing difficulties (chest tightness, shortness of breath, respiratory difficulty) and nausea", "setting": "[2]", "result": "free of any such distress"}, {"measurement": "self-reported breathing difficulties (chest tightness, shortness of breath, respiratory difficulty) and nausea", "setting": "[2]; listed as nebulized bicarbonate", "result": "free of respiratory distress"}, {"measurement": "gastrointestinal discomfort or side effects", "setting": "[2]; listed as Nebulized bicarbonate", "result": "without detrimental side effects"}, {"measurement": "improvement in performance (faster time) in sprint set 5", "setting": "[2]; [4]", "result": 5, "unit": "%"}, {"measurement": "improvement in performance (faster time) in sprint set 6", "setting": "[2]; [4]", "result": 7, "unit": "%"}]}]}
